This passage reports IC50 results from patent US8304416B2, “Chromenone derivatives” (Merck Patent GmbH, priority 2003, dated 2012).

Some results are limits rather than exact numbers.

Common to all, as to format: biochemical
For assay [1], the target named is PKB (Homo sapiens, UniProt P31749). Briefly: Inhibition of PKB.
In assay [2] the test system is RAF. Briefly: Inhibition of RAF.
Assay [3] deals with Tie2 (Homo sapiens, UniProt Q02763). Briefly: Inhibition of Tie2.
Sequence of Tie2 (Q02763 23-1124, species assumed): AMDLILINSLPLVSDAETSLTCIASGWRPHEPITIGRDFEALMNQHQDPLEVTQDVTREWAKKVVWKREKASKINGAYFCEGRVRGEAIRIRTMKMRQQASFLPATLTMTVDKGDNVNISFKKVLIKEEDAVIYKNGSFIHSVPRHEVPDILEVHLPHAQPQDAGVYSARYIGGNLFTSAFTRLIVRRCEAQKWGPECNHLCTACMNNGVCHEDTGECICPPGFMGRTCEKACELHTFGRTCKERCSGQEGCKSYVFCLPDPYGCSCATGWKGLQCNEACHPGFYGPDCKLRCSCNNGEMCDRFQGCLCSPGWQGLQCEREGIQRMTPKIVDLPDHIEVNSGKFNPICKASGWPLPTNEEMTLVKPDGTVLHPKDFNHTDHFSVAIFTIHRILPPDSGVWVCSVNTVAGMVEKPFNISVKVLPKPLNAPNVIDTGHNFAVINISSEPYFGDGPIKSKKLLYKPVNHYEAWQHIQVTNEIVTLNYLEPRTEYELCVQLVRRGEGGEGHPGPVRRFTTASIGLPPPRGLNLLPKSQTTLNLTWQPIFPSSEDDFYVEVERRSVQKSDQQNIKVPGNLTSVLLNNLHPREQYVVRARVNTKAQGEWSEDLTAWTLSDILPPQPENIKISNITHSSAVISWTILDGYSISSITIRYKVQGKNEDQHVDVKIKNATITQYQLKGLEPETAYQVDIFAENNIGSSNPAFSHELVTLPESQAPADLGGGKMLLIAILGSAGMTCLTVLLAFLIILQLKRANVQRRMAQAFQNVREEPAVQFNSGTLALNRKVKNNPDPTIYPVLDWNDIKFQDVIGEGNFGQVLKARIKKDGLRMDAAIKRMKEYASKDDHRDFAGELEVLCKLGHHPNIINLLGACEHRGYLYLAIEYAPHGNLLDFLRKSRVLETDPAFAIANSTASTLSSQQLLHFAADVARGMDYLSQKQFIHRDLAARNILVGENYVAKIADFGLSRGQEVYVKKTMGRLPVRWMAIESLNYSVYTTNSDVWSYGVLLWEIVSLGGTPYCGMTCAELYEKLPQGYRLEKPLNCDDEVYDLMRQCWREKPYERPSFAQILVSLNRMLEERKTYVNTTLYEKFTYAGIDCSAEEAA

Sequence of PKB (P31749 whole entry, species assumed): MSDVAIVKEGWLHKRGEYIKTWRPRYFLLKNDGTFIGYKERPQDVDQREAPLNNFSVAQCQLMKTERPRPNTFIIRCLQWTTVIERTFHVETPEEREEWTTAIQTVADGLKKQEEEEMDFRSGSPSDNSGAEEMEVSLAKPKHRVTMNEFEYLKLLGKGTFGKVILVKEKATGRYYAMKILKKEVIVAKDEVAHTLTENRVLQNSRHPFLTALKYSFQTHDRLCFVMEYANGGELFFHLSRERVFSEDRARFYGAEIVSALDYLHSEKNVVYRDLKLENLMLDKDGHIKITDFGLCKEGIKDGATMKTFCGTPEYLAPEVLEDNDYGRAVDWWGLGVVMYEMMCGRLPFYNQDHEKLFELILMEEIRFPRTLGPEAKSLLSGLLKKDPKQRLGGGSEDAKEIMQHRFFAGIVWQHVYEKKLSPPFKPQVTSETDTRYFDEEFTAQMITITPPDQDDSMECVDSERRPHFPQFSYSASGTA

As a reminder, the IC50 is the concentration that inhibits the measured activity by half. Higher therefore signals weaker potency in that assay. Take `Cn1ccnc1C(=O)c1cc(=O)c2cc(O)ccc2o1`: the IC50 in assay [1] is over 10 µM; in assay [2], over 1 µM; in assay [3] it was over 10 µM.
With `O=C(c1ccccn1)c1cc(=O)c2c(O)cc(O)cc2o1`, the IC50 is over 10 µM in assay [1], over 1 µM in assay [2] and over 10 µM in assay [3].
Turning to `O=C(c1ccccn1)c1cc(=O)c2cc(O)ccc2o1`, the results for the IC50 in assay [1], in assay [2] and in assay [3] were over 10 µM, over 1 µM and over 10 µM, respectively.
Take `Cn1ccnc1C(=O)c1cc(=O)c2c(O)cc(O)cc2o1`: the half-inhibitory concentration (IC50) is over 10 µM in assay [1], over 1 µM in assay [2] and over 10 µM in assay [3].
On to `O=C(c1cc(=O)c2cc(O)ccc2o1)c1nc2ccccc2s1`, for which the values for the IC50 in assay [1], in assay [2] and in assay [3] were over 10 µM, over 1 µM and over 10 µM, respectively.
Regarding `O=C(c1cc(=O)c2cc(O)ccc2o1)c1ncc(Cl)nc1Cl`, the IC50 in assay [1] was 9.4 µM; in assay [2] it was over 1 µM; in assay [3], over 10 µM.
